In patent US8961959B2, “Glucosylceramide synthase inhibitors and therapeutic methods using the same” (The Regents of the University of Michigan, priority 2011, dated 2015):
Like-named read-outs stand apart in the source and are kept apart here.

Assays:
WT-MDCKII cells = experiment: GCS inhibition (GlcCer production) in whole wild-type MDCKII cells; format: cell-based, canine; conditions: for IC50: Canis lupus familiaris, MDCK-II, 24 h
Experimental: Parental (WT-)MDCKII cells and MDCKII cells retrovirally transduced with human MDR-1 cDNA were obtained from the Netherlands Cancer Institute. Both cell lines were routinely maintained in medium consisting of Opti-MEM/F 12 (1:1), 5% FBS, 100 U/mL of penicillin, 100 μg/mL streptomycin and […] L-glutamine. MDCKII cells were newly thawed from frozen ampules every two months. Protein levels of MDR1 in MDR1-MDCKII cells were measured monthly, and MDR1-MDCKII cell passages were immediately terminated when a reduction of MDR1 levels was observed by Western blot using anti-human MDR1 monoclonal antibody (Abcam C219).
(§1) Stock solutions of water-insoluble glycosphingolipid inhibitors (100 mM) were prepared by dissolving each inhibitor into 100% ethanol as previously described (3). The inhibitor-ethanol solutions then were diluted 50× into 2 mM delipidated bovine serum albumin-phosphate buffered saline solution to make water-soluble glycosphingolipid inhibitor-bovine serum albumin complexes. The inhibitor-bovine serum album complexes were sterile-filtered and stored at −20° C. Prior to use, portions of the inhibitor-bovine serum albumin complexes were further diluted with Opti-F12 to make treatment solutions. Equal amounts of bovine serum albumin and ethanol were added into the control cultures. WT and MDR1-MDCKII cells (5×10^5) were seeded into 10-cm culture dishes containing 10 ml of Opti-F12 with 5% FBS. After 24 hours, the medium was replaced with fresh serum-free Opti-F12 medium, and cells were exposed to candidate GCS inhibitors at concentrations of 0, 1, 3, 10, 30, 100 and 300 nM for 24 hours.
(§2) Following inhibitor treatment, whole cellular lipids of wild type and MDR1-MDCKII cells were extracted as previously described in detail (10). Briefly, cells were washed with ice-cold phosphate buffered saline, fixed by methanol, and collected with rubber scraper. Chloroform was then added to yield a theoretical ratio of chloroform:methanol:water at 1:2:0.8 (v/v/v) to form a mono-phase. Cell debris and proteins were removed by centrifugation at 2200×g for 30 min. The supernatants were portioned by adding chloroform and 0.9% NaCl. The lower organic phases containing neutral glycosphingolipids lipids were washed with methanol and 0.9% NaCl, and subjected to base- and acid-hydrolysis (10). A portion of purified glycosphingolipids normalized to 100 nmol of total phospholipids was analyzed by high performance thin layer chromatography. The thin layer chromatography separations were processed twice. The plate pretreated with 1% sodium borate was first developed in a solvent system consisting of chloroform/methanol (98/2, v/v). After air drying, the plate was then developed in a solvent system containing chloroform/methanol/water (70/30/4, v/v/v). The levels of glucosylceramide were detected by charring with 8% cupric sulfate in 8% phosphoric acid, and quantified by densitometric scanning using ImageJ, NIH Image. Image data was analyzed, and the IC50 of each inhibitor was calculated using GraphPad Prism (version 5.03).

MDR1-MDCKII cells = experiment: GCS inhibition (GlcCer production) in MDCKII cells stably expressing human MDR1; format: cell-based, canine; conditions: for IC50: Canis lupus familiaris
Experimental: Parental (WT-)MDCKII cells and MDCKII cells retrovirally transduced with human MDR-1 cDNA were obtained from the Netherlands Cancer Institute. Both cell lines were routinely maintained in medium consisting of Opti-MEM/F 12 (1:1), 5% FBS, 100 U/mL of penicillin, 100 μg/mL streptomycin and […] L-glutamine. MDCKII cells were newly thawed from frozen ampules every two months.
as §1, with “After 24 hours, the medium was replaced with fresh serum-free Opti-F12 medium, and cells were exposed to candidate GCS inhibitors at concentrations of 0, 1, 3, 10, 30, 100 and 300 nM for 24 hours.” left out
as §2, with “Image.” for “Image. Image data was analyzed, and the IC50 of each inhibitor was calculated using GraphPad Prism (version 5.03).”

[1] = inhibition of GlcCer production in whole wild-type MDCKII cells, read-out: WT-MDCK IC50

Structure (SMILES)	IC50 (WT-MDCKII cells; WT-MDCKII cells, read-out: IC50 for reduction in GlcCer levels, WT cells) [nM]	IC50 (WT-MDCKII cells; [1]) [nM]	potency in whole cells versus broken cells (WT-MDCKII cells; broken cell IC50 versus whole WT-MDCKII IC50) [fold]	IC50 (MDR1-MDCKII cells; MDR1-MDCKII cells, 24 h, read-out: IC50 for reduction in GlcCer levels, MDR1 expressing cells) [nM]	MDR/WT (MDR1-MDCKII cells; ratio of MDR1-MDCKII IC50 divided by WT-MDCKII IC50)	IC50 (MDR1-MDCKII cells; inhibition of GlcCer production in MDCKII cells stably expressing human MDR1, 24 h, read-out: MDR-MDCK IC50) [nM]
CCCCCCCC(=O)N[C@H](CN1CCCC1)[C@H](O)c1ccc2c(c1)OCCO2 [Compound 3a, N-((1R,2R)-1-(2,3-dihydrobenzo-[b][1,4]dioxin-6-yl)-1-hydroxy-3-(pyrrolidin-1-yl)propan-2-yl)octanamide, reference compound]	13.7	13.7	~10	31.7	2.3	–
O=C(CC1Cc2ccccc2C1)N[C@H](CN1CCCC1)[C@H](O)c1ccc2c(c1)OCCO2 [Compound 3h, 2-(2,3-dihydro-1H-inden-2-yl)-N-((1R,2R)-1-(2,3-dihydrobenzo[b][1,4]dioxin-6-yl)-1-hydroxy-3-(pyrrolidin-1-yl)propan-2-yl)acetamide]	–	15.3	–	–	–	24.3
